Test results reported in patent US10813926B2, “Morphinan compounds” (Concert Pharmaceuticals, Inc., priority 2008, dated 2020).
Structures can show the parent of a compound that is named as a salt.

Assays:
CYP2D6 = target: T1, CYP2D6 (Homo sapiens, UniProt P10635); assay: Metabolic stability in CYP2D6 SUPERSOMES; format: in vitro ADME; details: human, recombinant human CYP2D6 SUPERSOMES, pH 7.4; 50 pmol/mL CYP2D6 SUPERSOMES, 1 μM test compound, 2 mM NADPH, 37° C., 0-30 minutes, triplicate; read-out: t1/2 ± SD, calculated half-life in SUPERSOMES
T1 construct: purchased GenTest (Woburn, Mass., USA)
Description: (§1) Human CYP2D6 SUPERSOMES™ were purchased from GenTest (Woburn, Mass., USA). 7.5 mM stock solutions of test compounds (Compounds 100, 102, 104, 106, dextromethorphan, a deuterated analog of dextromethorphan wherein each methyl group was replaced with CD3 (“d6-dextromethorphan”, chemical name (+)-3-d3-methoxy-17-d3-methyl-(9α,13α,14α)-morphinan, also referred to as Compound 101 in U.S. Ser. No. 12/112,936, and as “Test Compound” in FIG. 1 and Table 2 below), the ethyl ether analog of dextromethorphan (“dextroethorphan”) or the isopropyl ether analog of dextromethorphan (“dextroisoproporphan”)) were prepared in DMSO. The 7.5 mM stock solutions were diluted to 50 μM in acetonitrile (ACN). The 1000 pmol/mL CYP2D6 supersomes were diluted to 62.5 pmol/mL in 0.1 M potassium phosphate buffer, pH 7.4, containing 3 mM MgCl2. The diluted SUPERSOMES™ were added to wells of a 96-well deep-well polypropylene plate in triplicate. 10 μL of the 50 μM test compound was added to the supersomes and the mixture was pre-warmed for 10 minutes. Reactions were initiated by addition of pre-warmed NADPH solution. The final reaction volume was 0.5 mL and contained 50 pmol/mL CYP2D6 SUPERSOMES™, 1 μM test compound, and 2 mM NADPH in 0.1 M potassium phosphate buffer, pH 7.4, and 3 mM MgCl2. The reaction mixtures were incubated at 37° C. and 50 μL aliquots were removed at 0, 5, 10, 20, and 30 minutes and added to shallow-well 96-well plates which contained 50 μL of ice-cold ACN with internal standard to stop the reactions. The plates were stored at 4° C. for 20 minutes after which 100 μL of water was added to the wells of the plate before centrifugation to pellet precipitated proteins. Supernatants were transferred to another 96-well plate and analyzed for amounts of parent remaining by LC-MS/MS using an Applied Bio-systems API 4000 mass spectrometer.
(§2) The in vitro half-life (t1/2) for each of the test compounds was calculated from the slopes of the linear regression of % parent remaining (ln) vs incubation time relationship: in vitro t1/2=0.693/k, where k=−[slope of linear regression of % parent remaining(ln) vs incubation time]. Data analysis was performed using Microsoft Excel Software.

[1] = Metabolic stability using human liver microsomes; format: in vitro ADME; details: for half-life at 1 μM: pH 7.4, read-out: t1/2 ± SD, calculated half-life in human liver microsomes; for half-life at 1 μM / t1/2 ± SD, calculated half-life in human liver microsomes: 1.0 mg/mL human liver microsomes, 1 μM test compound, 2 mM NADPH, 37° C., triplicate
Description: Human liver microsomes (20 mg/mL) were obtained from Xenotech, LLC (Lenexa, Kans.). β-nicotinamide adenine dinucleotide phosphate, reduced form (NADPH), magnesium chloride (MgCl2), and dimethyl sulfoxide (DMSO) were purchased from Sigma-Aldrich.
7.5 mM stock solutions of test compounds were prepared in DMSO. The 7.5 mM stock solutions were diluted to 50 μM in acetonitrile (ACN). The 20 mg/mL human liver microsomes were diluted to 1.25 mg/mL (1 mg/mL final) in 0.1 M potassium phosphate buffer, pH 7.4, containing 3 mM MgCl2. The diluted microsomes (375 μL) were added to wells of a 96-well polypropylene plate in triplicate. 10 μL of the 50 μM test compound was added to the microsomes and the mixture was pre-warmed for 10 minutes. Reactions were initiated by addition of 125 μL of pre-warmed NADPH solution. The final reaction volume was 0.5 mL and contained 1.0 mg/mL human liver microsomes, 1 μM test compound, and 2 mM NADPH in 0.1 M potassium phosphate buffer, pH 7.4, and 3 mM MgCl2. The reaction mixtures were incubated at 37° C., and 50 μL aliquots were removed at 0, 5, 10, 20, and 30 minutes and added to shallow 96-well plates which contained 50 μL of ice-cold ACN with internal standard to stop the reactions. The plates were stored at 4° C. for 20 minutes after which 100 μL of water was added to the wells of the plate before centrifugation to pellet precipitated proteins. Supernatants were transferred to another 96-well plate and analyzed for amounts of parent remaining by LC-MS/MS using an Applied Bio-systems API 4000 mass spectrometer.
7-ethoxy coumarin was used as a positive control.
The in vitro t1/2s for test compounds were calculated from the slopes of the linear regression of % parent remaining (ln) vs incubation time relationship:
in vitro t1/2=0.693/k, where k=−[slope of linear regression of % parent remaining(ln) vs incubation time]
Data Analysis was Performed Using Microsoft Excel Software.

Human CYP2D6 SUPERSOMES = target: T2, Human CYP2D6 SUPERSOMES (Homo sapiens, UniProt P10635); assay: Metabolic stability in CYP2D6 SUPERSOMES; format: in vitro ADME; details: 50 pmol/mL CYP2D6 SUPERSOMES, 1 μM test compound, 2 mM NADPH, 37° C., 0-30 minutes, triplicate
T2 construct: purchased GenTest (Woburn, Mass., USA)
Description: as §1, §2

[2] = healthy human males; cited from earlier work
[3] = Table 3, vs dextroethorphan or dextroisoproporphan

T2 sequence (P10635 whole entry): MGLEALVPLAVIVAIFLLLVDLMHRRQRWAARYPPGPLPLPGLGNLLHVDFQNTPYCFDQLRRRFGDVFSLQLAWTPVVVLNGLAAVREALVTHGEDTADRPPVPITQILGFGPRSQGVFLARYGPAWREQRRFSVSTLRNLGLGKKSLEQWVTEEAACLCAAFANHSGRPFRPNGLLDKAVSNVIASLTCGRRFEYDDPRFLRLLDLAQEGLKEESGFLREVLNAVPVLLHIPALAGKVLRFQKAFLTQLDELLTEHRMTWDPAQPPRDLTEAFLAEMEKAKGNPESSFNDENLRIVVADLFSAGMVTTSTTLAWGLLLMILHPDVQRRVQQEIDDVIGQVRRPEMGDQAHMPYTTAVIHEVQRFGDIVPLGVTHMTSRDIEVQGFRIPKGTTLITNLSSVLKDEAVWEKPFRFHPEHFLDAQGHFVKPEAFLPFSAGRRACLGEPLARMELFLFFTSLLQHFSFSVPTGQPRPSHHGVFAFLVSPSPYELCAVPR
T1 sequence (P10635 whole entry): as above

## [2H]C([2H])([2H])N1CC[C@@]23CCCC[C@@H]2[C@@H]1Cc1ccc(OC([2H])(C([2H])([2H])[2H])C([2H])([2H])[2H])cc13 [Compound 102, (+)-3-(Isopropoxy-d7)-17-(methyl-d3)-(9α,13α,14α)-morphinan]
CYP2D6
  half-life at 1 μM: 39 ± 1.9 min
[1]; [3]
  Change over non-deuterated compound (half-life): 69%
[1]; Table 3
  half-life at 1 μM: 61 ± 0.4 min

## [2H]C([2H])([2H])C([2H])([2H])Oc1ccc2c(c1)[C@]13CCCC[C@@H]1[C@H](C2)N(C)CC3 [Compound 104, (+)-3-(Ethoxy-d5)-17-methyl-(9α,13α,14α)-morphinan hydrochloride]
Human CYP2D6 SUPERSOMES
  t1/2 ± SD, calculated half-life in SUPERSOMES: 49.1 ± 4.1 min
[1]; Table 3
  t1/2 ± SD, calculated half-life in human liver microsomes: 59.1 ± 2.2 min
[1]; [3]
  Change over non-deuterated compound (half-life): 109%

## CC(C)Oc1ccc2c(c1)[C@@]13CCCC[C@H]1[C@@H](C2)N(C)CC3 [Dextroisoproporphan, (+)-3-(2-propoxy)-17-methyl-morphinan, reference compound]
CYP2D6
  half-life at 1 μM: 21.7 ± 1.6 min
[1]; Table 3
  half-life at 1 μM: 36.1 ± 1.6 min

## CCOc1ccc2c(c1)[C@@]13CCCC[C@H]1[C@@H](C2)N(C)CC3 [Dextroethorphan, (+)-3-ethoxy-17-methylmorphinan, reference compound]
Human CYP2D6 SUPERSOMES
  t1/2 ± SD, calculated half-life in SUPERSOMES: 10.3 ± 2.1 min
[1]; Table 3
  t1/2 ± SD, calculated half-life in human liver microsomes: 28.3 ± 0.6 min

## [2H]C([2H])([2H])c1ccc2c(c1)[C@]13CCCC[C@@H]1[C@H](C2)N(C([2H])([2H])[2H])CC3 [Compound 110, (+)-3-(Methyl-d3)-17-(methyl-d3)-(9α,13α,14α)-morphinan]
[1]; Table 4, vs dimemorfan
  Change over non-deuterated compound (half-life): 37%

## [2H]C([2H])([2H])C([2H])(Oc1ccc2c(c1)[C@]13CCCC[C@@H]1[C@H](C2)N(C)CC3)C([2H])([2H])[2H] [Compound 106, (+)-3-(Isopropoxy-d7)-17-methyl-(9α,13α,14α)-morphinan]
CYP2D6
  half-life at 1 μM: 36 ± 2.8 min
[1]; [3]
  Change over non-deuterated compound (half-life): 91%
[1]; Table 3
  half-life at 1 μM: 68.8 ± 0.9 min

## COc1ccc2c(c1)[C@]13CCCC[C@@H]1[C@H](C2)N(C)CC3 [Dextromethorphan, (+)-3-methoxy-17-methyl-(9α,13α,14α)-morphinan, reference compound]
Human CYP2D6 SUPERSOMES
  t1/2 ± SD, calculated half-life in SUPERSOMES: 1.7 ± 0.3 min

## Cc1ccc2c(c1)[C@]13CCCC[C@@H]1[C@H](C2)N(C)CC3 [Dimemorfan, (+)-(9α,13α,14α)-3,17-dimethylmorphinan]
[2]
  fraction of a dose metabolized: Greater than 98%

## [2H]C([2H])([2H])c1ccc2c(c1)[C@]13CCCC[C@@H]1[C@H](C2)N(C)CC3 [Compound 108, (+)-3-(Methyl-d3)-17-methyl-(9α,13α,14α)-morphinan]
[1]; Table 4, vs dimemorfan
  Change over non-deuterated compound (half-life): 21%

## [2H]C([2H])([2H])Oc1ccc2c(c1)[C@]13CCCC[C@@H]1[C@H](C2)N(C([2H])([2H])[2H])CC3 [Test Compound, (+)-3-d3-methoxy-17-d3-methyl-(9α,13α,14α)-morphinan, reference compound]
Human CYP2D6 SUPERSOMES
  t1/2 ± SD, calculated half-life in SUPERSOMES: 5.6 ± 1.5 min

## [2H]C([2H])([2H])N1CC[C@@]23CCCC[C@@H]2[C@@H]1Cc1ccc(OC([2H])([2H])C([2H])([2H])[2H])cc13 [Compound 100, (+)-3-(Ethoxy-d5)-17-(methyl-d3)-(9α,13α,14α)-morphinan hydrochloride]
Human CYP2D6 SUPERSOMES
  t1/2 ± SD, calculated half-life in SUPERSOMES: 51.3 ± 3.7 min
[1]; Table 3
  t1/2 ± SD, calculated half-life in human liver microsomes: 59.2 ± 1.7 min
[1]; [3]
  Change over non-deuterated compound (half-life): 109%
